In patent US10941160B2, “Bromodomain inhibitors” (CELGENE QUANTICEL RESEARCH, INC., priority 2013, dated 2021) one finds IC50 data, which are given here for 7 compounds.

Where two headings read alike, the source gives them in different places.

The target of one test is BRD4(BD1) (Homo sapiens (Human), UniProt O60885). The test can be described thus: In vitro enzyme inhibition assay (BRD4 AlphaScreen, H4-tetraacetyl peptide). In kind it is binding. The procedure:
His-tagged BRD4 was cloned, expressed and purified to homogeneity. […] BRD4 binding and inhibition was assessed by monitoring the interaction of biotinylated H4-tetraacetyl peptide (AnaSpec, H4K5/8/12/16(Ac), biotin-labeled) with the target using the AlphaScreen technology (Life Technologies). […] After 20 min incubation at room temp, Alpha streptavidin donor beads and Nickel Chelate acceptor beads were added to a final concentration of 5 μg/mL.
The ability of the compounds disclosed herein to inhibit BRD4 activity was quantified and the respective IC50 value was determined.
(In general: In Alpha technology, singlet oxygen from a donor bead excites a nearby acceptor bead.)

Test [1] has as its system HL-60, human proleukemia cells. The test is described as follows: Cell-MTS cellular proliferation assay, HL-60. In kind it is cell-based. The procedure: (§1) The Cell-MTS assay is a 7-day plate-based colorimetric assay which quantifies the amount of newly generated NADH in the presence or absence of test compound. The NADH level is used for the quantification of cancer cell proliferation.
(§2) Established cancer cell lines with a variety of driving mutations were obtained from American Type Culture Collection (ATCC) and routinely passaged according to ATCC protocols. For routine assay, these cells were seeded at densities which enabled ˜90% confluence after 7 days of culture. Raji, human Burkitts lymphoma cells, (cMYC) were seeded at 15,000 cells per 96-well. HL-60, human proleukemia cells, (NRAS, p16, p53, c-Myc amplified) were seeded at 5,000 cells per 96-well. NCI-H460, human non-small cell lung cancer cells, (KRAS, PIK3CA, STLK11, p16) were seeded at 3,000 cells per 96-well 24 hr after plating, cells received an 11-point dilution of test compound with final concentration ranges from 100 μM to 2.0 nM. […] At the end of this incubation period, 80 μL of media is removed and 20 μL of CellTiter 96® AQueous Non-Radioactive Cell Proliferation Assay soln (Promega) was added. The cells were incubated until the OD490 was >0.6. IC50 values were calculated using the IDBS XLtit software package and include background subtracted OD490 values and normalization to DMSO controls. Cellular proliferation IC50 values were uploaded and archived using the Chem Biography Platform.
A general note: Tetrazolium dyes change colour on reduction, which living cells bring about.

Test [2] deals with Raji, human Burkitts lymphoma cells. The test is described as follows: Cell-MTS cellular proliferation assay, Raji. In kind it is cell-based. The procedure:
as §1, §2

For test [3], the system named is NCI-H460, human non-small cell lung cancer cells. The test can be described thus: Cell-MTS cellular proliferation assay, NCI-H460. In kind it is cell-based. On the procedure: as §1, §2
Where [4] appears, read: in vitro enzyme inhibition assay, class symbols, read-out: BRD4 IC50.

On to `CCNS(=O)(=O)c1cccc(-c2cn(C)c(=O)c3ccc(F)cc23)c1` [Example 49, N-ethyl-3-(6-fluoro-2-methyl-1-oxoisoquinolin-4yl) benzenesulfonamide], for which the IC50 against BRD4(BD1) fell in the range of 500 to 5000 nM; in test [1] (Homo sapiens, HL-60, 168 h, read-out: HL-60 IC50 (μM)) it was 0.5 to 5 µM; in test [2] (Homo sapiens, Raji, 168 h, read-out: Raji IC50 (μM)), 0.5 to 5 µM.

Regarding `Cn1cc(-c2cc(OS(N)(=O)=O)ccc2OCC2CC2)c2ccccc2c1=O` [Example 214, [4-(cyclopropylmethoxy)-3-(2-methyl-1-oxoisoquinolin-4-yl)phenyl] sulfamate], the IC50 at BRD4(BD1) (setting [4]) is less than 500 nM.

`Cn1cc(-c2cc(S(C)(=O)=O)ncc2OCC2CC2)c2ccc(F)cc2c1=O` [Example 203, 4-[5-(cyclopropylmethoxy)-2-methylsulfonylpyridin-4-yl]-7-fluoro-2-methylisoquinolin-1-one]: the IC50 on BRD4(BD1) (setting [4]) is less than 500 nM; in test [1] (Homo sapiens, HL-60, Cell-MTS proliferation, 168 hr, class symbols, read-out: HL-60 IC50), less than 0.5 µM; in test [3] (Homo sapiens, NCI-H460, 168 hr, class symbols), greater than 5000 nM; in test [2] (Homo sapiens, Raji, Cell-MTS proliferation, 168 hr, class symbols, read-out: Raji IC50) it was less than 0.5 µM.

For “N-[5-(cyclopropylmethoxy)-4-(7-fluoro-2-methyl-1-oxoisoquinolin-4-yl) pyrimidin-2-yl]methanesulfonamide [Example 158]”, the IC50 was less than 500 nM on BRD4(BD1) (read-out: BRD4 IC50); less than 0.5 µM in test [1] (Cell-MTS proliferation, 168 hr, class symbols, read-out: HL-60 IC50); greater than 5000 nM in test [3] (168 hr, class symbols); less than 0.5 µM in test [2] (Cell-MTS proliferation, 168 hr, class symbols, read-out: Raji IC50).

Turning to `Cn1cc(-c2cccc(S(N)(=O)=O)c2)c2ccc(F)cc2c1=O` [Example 61, 3-(7-fluoro-2-methyl-1-oxoisoquinolin-4-yl) benzenesulfonamide], the IC50 at BRD4(BD1) (in vitro enzyme inhibition assay, read-out: BRD4 IC50) was less than 500 nM; in test [1] (Cell-MTS proliferation, 168 hr, read-out: HL-60 IC50), 0.5 to 5 µM; in test [2] (Cell-MTS proliferation, 168 hr, read-out: Raji IC50), 0.5 to 5 µM.

In the case of `Cc1cc(-c2cc(OS(N)(=O)=O)ccc2OCC2CC2)cn(C)c1=O` [Example 215, [4-(cyclopropylmethoxy)-3-(1,5-dimethyl-6-oxopyridin-3-yl)phenyl] sulfamate], the IC50 on BRD4(BD1) (setting [4]) is less than 500 nM.

As to `COc1ccc(-c2cn(C)c(=O)c3cnccc23)cc1S(=O)(=O)NCc1ccccc1` [Example 54, N-benzyl-2-methoxy-5-(2-methyl-1-oxo-2,7-naphthyridin-4-yl) benzenesulfonamide], the IC50 in test [1] (Homo sapiens, HL-60, Cell-MTS proliferation, 168 hr, read-out: HL-60 IC50) is 0.5 to 5 µM; in test [3] (Homo sapiens, NCI-H460, 168 hr), greater than 5000 nM; in test [2] (Homo sapiens, Raji, Cell-MTS proliferation, 168 hr, read-out: Raji IC50), greater than 5 µM.

As usually defined, the IC50 is the concentration that inhibits the measured activity by half.
